Patent publication US20230382924A1, “MODULATORS OF CYSTIC FIBROSIS TRANSMEMBRANE CONDUCTANCE REGULATOR” (VERTEX PHARMACEUTICALS INCORPORATED, priority 2020, published 2023)
Where two headings read alike, the source gives them in different places.

Columns and labels:
Assay type in all cases: cell-based
CFTR [1] = target: T1, CFTR (Homo sapiens, UniProt P13569); assay: Membrane Potential Dye, Enteroid Assay A; conditions: for EC50: read-out: Ent. A EC50
Procedure, shortened: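 Enteroid cells were loaded with methyl oxonol membrane potential dye (plus CaCCinh-A01 and Chicago Sky Blue) for 25 min at room temperature. Chloride transport was started by switching to chloride-free gluconate stimulation solution, with fluorescence read for 15 min. Activity was expressed as % of a triple-combination CFTR modulator control (3 μM, 3 μM, 300 nM acute).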

F508del = target: T2, F508del (Homo sapiens, UniProt P13569, DEL508-508); assay: 3T3 assay: membrane potential optical assay for F508del correction in NIH 3T3 cells; conditions: for Emax: NIH3T3
T2 construct: expressed in transfected cells
Text: 1. Membrane Potential Optical Methods for Assaying F508del Modulation Properties of Compounds
The assay utilizes fluorescent voltage sensing dyes to measure changes in membrane potential using a fluorescent plate reader (e.g., FLIPR III, Molecular Devices, Inc.) as a readout for increase in functional F508del in NIH 3T3 cells. The driving force for the response is the creation of a chloride ion gradient in conjunction with channel activation by a single liquid addition step after the cells have previously been treated with compounds and subsequently loaded with a voltage sensing dye.
2. Identification of Corrector Compounds
To identify correctors of F508del, a single-addition HTS assay format was developed. This HTS assay utilizes fluorescent voltage sensing dyes to measure changes in membrane potential on the FLIPR III as a measurement for increase in gating (conductance) of F508del in F508del NIH 3T3 cells. The F508del NIH 3T3 cell cultures were incubated with the corrector compounds at a range of concentrations for 18-24 hours at 37° C., and subsequently loaded with a redistribution dye. The driving force for the response is a Cl^− ion gradient in conjunction with channel activation with forskolin in a single liquid addition step using a fluorescent plate reader such as FLIPR III.
Bath Solution #1: (in mM) NaCl 160, KCl 4.5, CaCl2) 2, MgCl2 1, HEPES 10, pH 7.4 with NaOH.
Chloride-free bath solution: Chloride salts in Bath Solution #1 (above) are substituted with gluconate salts.
NIH3T3 mouse fibroblasts stably expressing F508del are used for optical measurements of membrane potential. The cells are maintained at 37° C. in 5% CO2 and 90% humidity in Dulbecco's modified Eagle's medium supplemented with 2 mM glutamine, 10% fetal bovine serum, 1×NEAA, b-ME, 1×pen/strep, and 25 mM HEPES in 175 cm^2 culture flasks. For all optical assays, the cells were seeded at ˜20,000/well in 384-well matrigel-coated plates. For the correction assays, the cells are cultured at 37° C. with and without compounds for 16-24 hours.

CFTR [2] = target: T1, CFTR; assay: Membrane Potential Dye, Enteroid Assay B; conditions: Table 9
Procedure, shortened: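 Enteroid cells loaded 25 min at room temperature with 20 μM methyl oxonol plus 30 μM CaCCinh-A01 and 30 μM Chicago Sky Blue, then switched to chloride-free gluconate buffer. Chloride transport was started by chloride-free stimulation solution, with fluorescence read for 15 min.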

[3] = Table 8, read-out: 3T3 Max Activity
[4] = NIH 3T3 cells, F508del correction

T2 sequence (P13569 with tags, fused parts or gaps DEL508-508): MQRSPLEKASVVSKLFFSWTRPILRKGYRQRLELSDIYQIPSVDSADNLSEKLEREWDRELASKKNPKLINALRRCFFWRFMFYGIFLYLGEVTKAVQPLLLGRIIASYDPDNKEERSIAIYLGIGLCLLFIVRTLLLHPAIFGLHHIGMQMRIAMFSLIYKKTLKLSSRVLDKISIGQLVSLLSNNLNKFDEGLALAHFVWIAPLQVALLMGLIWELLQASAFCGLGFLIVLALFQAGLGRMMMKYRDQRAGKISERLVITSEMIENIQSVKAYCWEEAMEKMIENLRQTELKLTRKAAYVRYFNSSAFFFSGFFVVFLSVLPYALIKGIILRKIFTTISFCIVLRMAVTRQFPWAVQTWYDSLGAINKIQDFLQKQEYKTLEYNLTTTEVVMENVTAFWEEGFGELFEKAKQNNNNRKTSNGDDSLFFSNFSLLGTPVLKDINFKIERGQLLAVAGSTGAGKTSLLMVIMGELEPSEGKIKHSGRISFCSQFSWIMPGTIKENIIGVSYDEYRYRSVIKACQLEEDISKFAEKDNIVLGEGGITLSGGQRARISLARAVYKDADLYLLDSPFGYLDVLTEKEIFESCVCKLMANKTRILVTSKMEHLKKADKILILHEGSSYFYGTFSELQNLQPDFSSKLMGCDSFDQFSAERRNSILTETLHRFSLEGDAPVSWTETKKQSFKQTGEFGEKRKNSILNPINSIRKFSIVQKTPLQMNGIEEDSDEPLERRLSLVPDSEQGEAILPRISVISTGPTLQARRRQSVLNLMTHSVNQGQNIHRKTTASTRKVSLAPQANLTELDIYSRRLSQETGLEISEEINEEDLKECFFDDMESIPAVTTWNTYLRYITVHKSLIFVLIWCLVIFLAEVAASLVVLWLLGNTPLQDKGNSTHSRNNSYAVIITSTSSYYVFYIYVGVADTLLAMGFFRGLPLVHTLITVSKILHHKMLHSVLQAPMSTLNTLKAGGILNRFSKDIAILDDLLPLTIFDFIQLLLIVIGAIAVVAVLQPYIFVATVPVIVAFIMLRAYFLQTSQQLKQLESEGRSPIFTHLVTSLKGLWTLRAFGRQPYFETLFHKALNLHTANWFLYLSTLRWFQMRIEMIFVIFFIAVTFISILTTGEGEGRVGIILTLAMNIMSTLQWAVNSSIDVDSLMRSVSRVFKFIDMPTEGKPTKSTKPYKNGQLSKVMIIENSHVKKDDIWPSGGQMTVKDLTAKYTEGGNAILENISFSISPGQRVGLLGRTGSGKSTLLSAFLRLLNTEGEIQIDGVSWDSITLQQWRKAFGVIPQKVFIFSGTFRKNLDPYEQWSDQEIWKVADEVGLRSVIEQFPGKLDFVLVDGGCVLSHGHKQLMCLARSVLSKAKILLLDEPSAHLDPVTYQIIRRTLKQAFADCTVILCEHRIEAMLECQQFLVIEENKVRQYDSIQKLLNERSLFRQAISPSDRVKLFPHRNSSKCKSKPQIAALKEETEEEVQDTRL
T1 sequence (P13569 with tags, fused parts or gaps DEL508-508): as above

Ent. A Max Activity (CFTR [1]; Table 8) | EC50 (CFTR [1]; Table 8) [µM] | Emax (F508del; [3]) [%] | EC50 (F508del; Table 8) [µM] | SMILES | further results
+ (+ is <30%) |  | > 60 | < 1 | Cc1cccc(C)c1-c1cc2nc(n1)NS(=O)(=O)c1cccc(c1)C(=O)NC[C@H](C1CCCCC1)O2 (stereo in doubt) [Compound 270] | 
+ (+ is <30%) | 3 to 30 | > 60 | < 1 | Cc1cccc(C)c1-c1cc2nc(n1)NS(=O)(=O)c1cccc(c1)C(=O)NC[C@H](c1cccc(C(C)(C)C)c1)O2 (stereo in doubt) [Compound 274] | 
+++ (+++ is >60%) | < 1 | > 60 | < 1 | CCCC[C@@H]1Oc2cc(-c3c(C)cccc3C)nc(n2)NS(=O)(=O)c2cccc(c2)C(=O)N[C@@H]1CC1CCCCC1 (stereo in doubt) [Compound 287] | 
+++ (+++ is >60%) | < 1 | > 60 | < 1 | Cc1cccc(C)c1-c1cc2nc(n1)NS(=O)(=O)c1cccc(c1)C(=O)NC[C@@H](c1ccc(C(F)(F)F)cc1)O2 (stereo in doubt) [Compound 401] | 
+++ (+++ is >60%) | < 1 |  | < 1 | Cc1cccc(C)c1-c1cc2nc(n1)NS(=O)(=O)c1cccc(c1)C(=O)NCC(c1ccc(C(C)C)cc1)O2 (stereo not shown) [Compound 271] | 3T3 Max Activity (F508del; Table 8): +++ (+++ is >60%)
+ (+ is <30%) | 1 to 3 | > 60 | < 1 | Cc1cccc(C)c1-c1cc2nc(n1)NS(=O)(=O)c1cccc(c1)C(=O)NCC(c1ccc(C(C)C)cc1)O2 (stereo not shown) [Compound 272] | 
+++ (+++ is >60%) | < 1 | > 60 | < 1 | Cc1cccc(C)c1-c1cc2nc(n1)NS(=O)(=O)c1ccccc1C(=O)NCC(C1CCC(C)(C)CC1)O2 (stereo not shown) [Compound 284] | 
+++ (+++ is >60%) | < 1 | > 60 | < 1 | Cc1ccccc1-c1cc2nc(n1)NS(=O)(=O)c1cccc(c1)C(=O)N[C@H](CC(C)(C)C)CO2 [Compound 305] | 
+++ (+++ is >60%) | 1 to 3 | > 60 | < 1 | CC(C)C[C@@H]1COc2cc(-c3ccccc3F)nc(n2)NS(=O)(=O)c2cccc(c2)C(=O)N1 [Compound 315] | 

More lines, now with the values behind:

SMILES | Ent. A Max Activity (CFTR [1]; Table 8) | EC50 (CFTR [1]; Table 8) [µM] | Emax (F508del; [3]) [%] | EC50 (F508del; Table 8) [µM] | further results
Cc1cccc(C)c1-c1cc2nc(n1)NS(=O)(=O)c1cccc(c1)C(=O)NCC(c1ccc(C3(C(F)(F)F)CC3)cc1)O2 (racemic) [Compound 9, 6-(2,6-dimethylphenyl)-10-{4-[1-(trifluoromethyl)cyclopropyl]phenyl}-9-oxa-2λ^6-thia-3,5,12,19-tetraazatricyclo[12.3.1.14,8]nonadeca-1(18),4(19),5,7,14,16-hexaene-2,2,13-trione] | +++ (+++ is >60%) | < 1 | > 60 | < 1 | 
Cc1cccc(C)c1-c1cc2nc(n1)NS(=O)(=O)c1cccc(c1)C(=O)NC[C@@H](c1ccc(C(C)(C)C)cn1)O2 (single isomer, unassigned) [Compound 7, 10-(5-tert-Butyl-2-pyridyl)-6-(2,6-dimethylphenyl)-2,2-dioxo-9-oxa-2λ^6-thia-3,5,12,19-tetrazatricyclo[12.3.1.14,8]nonadeca-1(18),4(19),5,7,14,16-hexaen-13-one] | +++ (+++ is >60%) | < 1 | > 60 | < 1 | 
Cc1cccc(C)c1-c1cc2nc(n1)NS(=O)(=O)c1cccc(c1)C(=O)N[C@H](CCC(C)(C)C)CO2 (single isomer, unassigned) [Compound 47] | +++ (+++ is >60%) | < 1 | > 60 | < 1 | 
Cc1cccc(C)c1-c1cc2nc(n1)NS(=O)(=O)c1cccc(c1)C(=O)N[C@H](CC(C)C)C(C1CC1)O2 (stereo in doubt) [Compound 239] | +++ (+++ is >60%) | < 1 | > 60 | < 1 | 
Cc1cccc(F)c1-c1cc2nc(n1)NS(=O)(=O)c1cccc(c1)C(=O)N[C@H](CC(C)C)CO2 [Compound 98, (11R)-6-(2-Fluoro-6-methylphenyl)-11-(2-methylpropyl)-9-oxa-2λ^6-thia-3,5,12,19-tetraazatricyclo[12.3.1.14,8]nonadeca-1(17),4,6,8(19),14(18),15-hexaene-2,2,13-trione] | +++ (+++ is >60%) | < 1 | > 60 | < 1 | 
CC1=C(c2cc3nc(n2)NS(=O)(=O)c2cccc(c2)C(=O)N[C@H](CC(C)C)CO3)C(C)CCC1 (stereo partly drawn) [Compound 100, (11R)-6-(2,6-Dimethylcyclohex-1-en-1-yl)-11-(2-methylpropyl)-9-oxa-2λ^6-thia-3,5,12,19-tetraazatricyclo[12.3.1.14,8]nonadeca-1(17),4,6,8(19),14(18),15-hexaene-2,2,13-trione] | +++ (+++ is >60%) | 1 to 3 | > 60 | < 1 | 
Cc1cccc(C)c1-c1cc2nc(n1)NS(=O)(=O)c1cccc(c1)C(=O)NCC(c1ccc3c(c1)CC(C)(C)O3)O2 (stereo not shown) [Compound 115] |  | 1 to 3 | > 60 | < 1 | 
Cc1cccc(C)c1-c1cc2nc(n1)NS(=O)(=O)c1cccc(c1)C(=O)NCC(c1ccc3c(c1)OCO3)O2 (stereo not shown) [Compound 118] |  | < 1 | > 60 | < 1 | 
Cc1cccc(C)c1-c1cc2nc(n1)NS(=O)(=O)c1cccc(c1)C(=O)N[C@H](CC(C)C)[C@@H](C1CCCCC1)O2 [Compound 140] | +++ (+++ is >60%) | < 1 | > 60 | < 1 | 
Cc1cccc(C)c1-c1cc2nc(n1)NS(=O)(=O)c1cccc(c1)C(=O)N[C@H](CC1CCCCC1)[C@H](C)O2 [Compound 143] | +++ (+++ is >60%) | < 1 | > 60 | < 1 | 
Cc1cc(C(C)(C)C)ccc1[C@@H]1CNC(=O)c2cccc(c2)S(=O)(=O)Nc2nc(cc(-c3c(C)cccc3C)n2)O1 [Compound 155] |  | < 1 | > 60 | < 1 | 
Cc1ccc2cc1S(=O)(=O)Nc1nc(cc(-c3c(C)cccc3C)n1)OC[C@@H](CC1CCCCC1)NC2=O [Compound 160] |  |  |  |  | Ent. A Max Activity (CFTR [1]; Enteroid Assay A): ++ (++ is 30-60%); EC50 (CFTR [1]; Enteroid Assay A): 1 to 3 µM; EC50 (F508del; [4]): < 1 µM
Cc1ccc2cc1C(=O)N[C@H](CC1CCCCC1)COc1cc(-c3c(C)cccc3C)nc(n1)NS2(=O)=O [Compound 161] |  |  |  |  | EC50 (F508del; [4]): 3 to 30 µM
Cc1cccc(C)c1-c1cc2nc(n1)NS(=O)(=O)c1cccc(c1)C(=O)N[C@H]1CC[C@H](CC1)O2 [Compound 198] |  |  |  |  | Ent. A Max Activity (CFTR [1]; Enteroid Assay A): +++ (+++ is >600%); EC50 (CFTR [1]; Enteroid Assay A): 1 to 3 µM; Emax (F508del; heading: 3T3 Max Activity, NIH 3T3 cells, F508del correction): > 60%; EC50 (F508del; [4]): < 1 µM
Cc1cccc(C)c1-c1cc2nc(n1)NS(=O)(=O)c1cccc(c1)C(=O)NCC(C)(C)CO2 [Compound 202] |  |  |  |  | Ent. A Max Activity (CFTR [1]; Enteroid Assay A): ++ (++ is 30-60%); EC50 (CFTR [1]; Enteroid Assay A): 3 to 30 µM; EC50 (F508del; [4]): < 1 µM
Cc1cccc(C)c1-c1cc2nc(n1)NS(=O)(=O)c1cccc(c1)C(=O)NC1CCCC(C1)O2 (stereo not shown) [Compound 203] |  |  |  |  | Ent. A Max Activity (CFTR [1]; Enteroid Assay A): ++ (++ is 30-60%); EC50 (F508del; [4]): < 1 µM
Cc1cccc(C)c1-c1cc2nc(n1)NS(=O)(=O)c1cccc(c1)C(=O)NCCCO2 [Compound 204] |  |  |  |  | Ent. A Max Activity (CFTR [1]; Enteroid Assay A): ++ (++ is 30-60%); EC50 (F508del; [4]): 1 to 3 µM
Cc1cccc(C)c1-c1cc2nc(n1)NS(=O)(=O)c1cccc(c1)C(=O)NC(Cc1ccccc1)CO2 (stereo not shown) [Compound 206] |  |  |  |  | Ent. A Max Activity (CFTR [1]; Enteroid Assay A): +++ (+++ is >600%); EC50 (CFTR [1]; Enteroid Assay A): < 1 µM; EC50 (F508del; [4]): < 1 µM
Cc1cccc(C)c1-c1cc2nc(n1)NS(=O)(=O)c1cccc(c1)C(=O)NC[C@@H](C1CCCCC1)O2 [Compound 269] |  |  | > 60 | < 1 | 
Cc1cccc(C)c1-c1cc2nc(n1)NS(=O)(=O)c1cccc(c1)C(=O)NCC(CC(C)C)(CC(C)C)CO2 [Compound 496] |  |  |  |  | Ent. A Max Activity (CFTR [1]; Table 9): +++ (+++ is >60%); EC50 (CFTR [1]; Table 9): < 1 µM; Ent. B Max Activity (CFTR [2]): +++ (+++ is >60%); EC50 (CFTR [2]; read-out: Ent. B EC50): < 1 µM
